Values of other authors as cited in paper PMC5292677 (Leukemia, 2016).
Where two headings read alike, the source gives them in different places.

Tested on: patients with MF
Details: cited from earlier work

SMILES: C1=C/COCc2cc(ccc2OCCN2CCCC2)Nc2nccc(n2)-c2cccc(c2)COC/1 [pacritinib]
- Myelosuppression: lack of myelosuppression

SMILES: N#CCNC(=O)c1ccc(-c2ccnc(Nc3ccc(N4CCOCC4)cc3)n2)cc1 [momelotinib]
- Change in allele burden: no meaningful change in allele burden

SMILES: N#CC[C@H](C1CCCC1)n1cc(-c2ncnc3[nH]ccc23)cn1 [ruxolitinib]
- TNFα level (following 4 weeks' treatment): downregulated
- Change in allele burden (long-term treatment): only a modest reduction

SMILES: Cc1cnc(Nc2ccc(OCCN3CCCC3)cc2)nc1Nc1cccc(S(=O)(=O)NC(C)(C)C)c1 [fedratinib]
- Change in allele burden: no meaningful change in allele burden
- CRP and IL-6 levels (patients treated, no reference given): CRP downregulation was reported without significant IL-6 reduction
